This note sets out measurements from patent publication US11999723B2, “Pyrazole-containing macrophage migration inhibitory factor inhibitors” (priority 2018, dated 2024).

The structures appear in SMILES notation.

MIF, sequence (P14174 2-115): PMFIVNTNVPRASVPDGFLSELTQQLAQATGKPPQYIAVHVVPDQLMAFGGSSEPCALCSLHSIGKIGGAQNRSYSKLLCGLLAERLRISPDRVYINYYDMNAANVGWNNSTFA

One assay has as its target MIF (Homo sapiens (Human), UniProt P14174). Description: HPP tautomerase assay (inhibition of the tautomerase activity of MIF). In kind it is biochemical.
Settings: not given
How it is done: Inhibition of the tautomerase activity of MIF was measured using the substrate 4-hydroxyphenyl pyruvic acid (HPP) in a procedure largely adapted from previous reports. A solution of HPP (10 mM) in acetate buffer (0.5 M ammonium acetate, pH adjusted to 6.0) was prepared and allowed to incubate overnight in the dark at room temperature to allow for equilibration of the keto and enol forms. Following the incubation period, the HPP solution was stored at 4° C. and used for no more than a week. […] A negative control (containing water and DMSO in lieu of protein and inhibitor, respectively) and a positive control (containing DMSO in lieu of inhibitor) were also prepared. The reaction began upon the addition of HPP solution (final concentration: 1.0 mM and 2.5 mM). […] Absorbance was measured three times for each [inhibitor]-[HPP] combination. […] Reported Ki values represent the average value obtained from two assays performed on different days. (R)-ISO-1 (purchased from Santa Cruz Biotechnology) was used as a control.
Recombinant human MIF was expressed and purified according to published protocols. Briefly, for the purification of MIF, E. coli cell pellets were suspended in lysis buffer (20 mM Tris, pH 7.5; 20 mM sodium chloride; 10% glycerol; 2 mM magnesium chloride; 1 cOmplete mini protease inhibitor cocktail tablet per 250 mL of buffer). The solution was sonicated and centrifuged at 27,000G for 30 mins. The supernatant was filtered through a 0.22 μm syringe filter and loaded on a GE Healthcare Hi-Trap SP HP column in sequence with a GE Healthcare Hi-Trap Q SP column equilibrated with a buffer composed of 20 mM NaCl and 20 mM Tris, pH 7.5. […] To achieve highest purity, the flow-through was further purified with a GE Healthcare Superdex 200 column. The purified protein was concentrated with a 10 kDa centrifugal filter unit to 30 mg/mL, flash-frozen in liquid nitrogen, and stored at −80° C.
As in prior studies, the inhibition constants Ki were determined using HPP as the substrate. […] In addition, the aqueous solubilities of several compounds were measured with a shake-flask procedure.
For `O=C(O)c1cc(-c2cn[nH]c2)ccc1-c1ccc2ccccc2c1` [Compound 6c, 2-(Naphthalen-2-yl)-5-(1H-pyrazol-4-yl)benzoic acid], the Ki was 5000 nM.

Staying with this assay, now noted: HPP as substrate; MIF tautomerase; read-out: Experimental inhibition constants, Ki.
On to `O=C(O)c1cc(-c2cn[nH]c2)ccc1Oc1cc2c3c(cccc3c1)CC2` [Compound 8l, 2-((1,2-Dihydroacenaphthylen-4-yl)oxy)-5-(1H-pyrazol-4-yl)benzoic acid], for which the Ki came to 1100 nM.
As for `O=C(O)c1cc(-c2cn[nH]c2)ccc1-c1ccc2ccccc2c1` [Compound 6c, 2-(Naphthalen-2-yl)-5-(1H-pyrazol-4-yl)benzoic acid], the Ki amounted to 5400 nM.
The same measure, in the same setting: with `O=C(O)c1cc(-c2cn[nH]c2)ccc1OC1C2CC3CC(C2)CC1C3` (stereo not drawn) [Compound 8k, 2-((Adamantan-2-yl)oxy)-5-(1H-pyrazol-4-yl)benzoic acid] the figure was 2600 nM; with `CN(c1ccc2ccccc2c1)c1ccc(-c2cn[nH]c2)cc1C(=O)O` [Compound 7b, 2-(Methyl(naphthalen-2-yl)amino)-5-(1H-pyrazol-4-yl)benzoic acid], 4200 nM.
Same read-out and setting: with `Cc1cc(C)cc(-c2cccc(Oc3ccc(-c4c[nH]nc4F)cc3C(=O)O)c2)c1` [Compound 8v, 2-((3′,5′-Dimethyl-[1,1′-biphenyl]-3-yl)oxy)-5-(3-fluoro-1H-pyrazol-4-yl)benzoic acid] the figure was 240 nM.
The same measure, in the same setting: the same measure for `CCc1cc(Oc2ccc(-c3c[nH]nc3F)cc2C(=O)O)cc2ccccc12` [Compound 8o, 2-((4-Ethylnaphthalen-2-yl)oxy)-5-(3-fluoro-1H-pyrazol-4-yl)benzoic acid]: 150 nM.
With `O=C(O)c1cc(-c2c[nH]nc2F)ccc1Oc1cccc(-c2ccccc2)c1` [Compound 8u, 2-([1,1′-Biphenyl]-3-yloxy)-5-(3-fluoro-1H-pyrazol-4-yl)benzoic acid], the Ki worked out at 130 nM.
`O=C(O)c1cc(-c2cn[nH]c2)ccc1Oc1ccc(F)cc1` [Compound 8f, 2-(4-Fluorophenoxy)-5-(1H-pyrazol-4-yl)benzoic acid]: the inhibitory constant (Ki) was determined as 4600 nM.
The same measure, in the same setting: the same measure for `O=C(O)c1cc(-c2c[nH]nc2F)ccc1Oc1cccc2ccccc12` [Compound 8m, 5-(3-Fluoro-1H-pyrazol-4-yl)-2-(naphthalen-1-yloxy)benzoic acid]: 480 nM; for `O=C(O)c1cc(-c2cn[nH]c2)ccc1Oc1cc2ccccc2c2ccccc12` [Compound 8j, 2-(Phenanthren-9-yloxy)-5-(1H-pyrazol-4-yl)benzoic acid]: 2300 nM; for `O=C(O)c1cc(-c2cn[nH]c2)ccc1Nc1ccccc1` [Compound 7a, 2-(Phenylamino)-5-(1H-pyrazol-4-yl)benzoic acid]: 12700 nM.
Same read-out and setting: the same measure for `O=C(O)c1cc(-c2cn[nH]c2)ccc1-c1cccc2ccccc12` [Compound 6b, 2-(Naphthalen-1-yl)-5-(1H-pyrazol-4-yl)benzoic acid]: 19500 nM; for `CCc1ccc2ccc(Oc3ccc(-c4c[nH]nc4F)cc3C(=O)O)cc2c1` [Compound 8q, 2-((7-Ethylnaphthalen-2-yl)oxy)-5-(3-fluoro-1H-pyrazol-4-yl)benzoic acid]: 140 nM.
The same measure, in the same setting: with `CCc1ccc2c(C3CC3)cc(Oc3ccc(-c4c[nH]nc4F)cc3C(=O)O)cc2c1` [Compound 8s, 2-((4-Cyclopropyl-7-ethylnaphthalen-2-yl)oxy)-5-(3-fluoro-1H-pyrazol-4-yl)benzoic acid] the figure was 66 nM; with `O=C(O)c1cc(-c2cn[nH]c2)ccc1-c1ccccc1` [Compound 6a, 4-(1H-pyrazol-4-yl)-[1,1′-biphenyl]-2-carboxylic acid], 20600 nM; with `Cc1ccc(Oc2ccc(-c3cn[nH]c3)cc2C(=O)O)cc1` [Compound 8d, 5-(1H-Pyrazol-4-yl)-2-(p-tolyloxy)benzoic acid], 7000 nM.
On to `CS(=O)(=O)c1cc(-c2cn[nH]c2)ccc1Oc1ccc2ccccc2c1` [Compound 8h, 4-(3-(Methylsulfonyl)-4-(naphthalen-2-yloxy)phenyl)-1H-pyrazole], for which the Ki came out at 6400 nM.
As to `Cc1ccccc1Oc1ccc(-c2cn[nH]c2)cc1C(=O)O` [Compound 8b, 5-(1H-Pyrazol-4-yl)-2-(o-tolyloxy)benzoic acid], the Ki amounted to 4300 nM.
Take `O=C(O)c1cc(-c2cn[nH]c2)ccc1Oc1ccccc1` [Compound 8a, 2-Phenoxy-5-(1H-pyrazol-4-yl)benzoic acid]: the inhibition constant Ki amounted to 6800 nM.
Still for that read-out and setting: with `O=C(O)c1cc(-c2c[nH]nc2F)ccc1Oc1ccc(-c2ccccc2)cc1` [Compound 8t, 2-([1,1′-Biphenyl]-4-yloxy)-5-(3-fluoro-1H-pyrazol-4-yl)benzoic acid] the figure was 350 nM.

Still in this assay, the particulars now being: HPP tautomerase assay.
Consider `CCc1cc(Oc2ccc(-c3c[nH]nc3F)cc2C(=O)O)cc2ccccc12` [Compound 8o, 2-((4-Ethylnaphthalen-2-yl)oxy)-5-(3-fluoro-1H-pyrazol-4-yl)benzoic acid], for which the “lowering of the Ki relative to 8n” value is 3 fold.
Turning to `CCc1ccc2ccc(Oc3ccc(-c4c[nH]nc4F)cc3C(=O)O)cc2c1` [Compound 8q, 2-((7-Ethylnaphthalen-2-yl)oxy)-5-(3-fluoro-1H-pyrazol-4-yl)benzoic acid], the “lowering of the Ki relative to 8n” value is reported as 3 fold.

Staying with this assay, now noted: Table 3; HPP as substrate; unit inferred; read-out: HPP Ki.
As for `O=C(O)c1cc(-c2cn[nH]c2)ccc1[S+]([O-])c1ccccc1` (stereo not drawn) [Compound 9r, 2-(phenylsulfinyl)-5-(1H-pyrazol-4-yl)benzoic acid], the Ki came to 13000 nM.
With `O=C(O)c1cc(-c2c[nH]nc2F)ccc1Oc1ccc2ccoc2c1` [Compound 9s, 2-(benzofuran-6-yloxy)-5-(3-fluoro-1H-pyrazol-4-yl)benzoic acid], the Ki was 570 nM.
Turning to `O=C(O)c1cc(-c2c[nH]nc2F)ccc1Oc1cccc(C(F)(F)F)c1` [Compound 9w, 5-(3-fluoro-1H-pyrazol-4-yl)-2-(3-(trifluoromethyl)phenoxy) benzoic acid], the Ki stood at 710 nM.
As to `O=C(O)c1cc(-c2cn[nH]c2)ccc1Oc1ccc(Cl)cc1` [Compound 9g, 2-(4-chlorophenoxy)-5-(1H-pyrazol-4-yl)benzoic acid], the Ki was found to be 8400 nM.
On to `O=C(O)c1cc(-c2cn[nH]c2)ccc1Oc1ccc2occc2c1` [Compound 9o, 2-(benzofuran-5-yloxy)-5-(1H-pyrazol-4-yl)benzoic acid], for which the Ki came to 3800 nM.
Same read-out and setting: with `O=C(O)c1cc(-c2c[nH]nc2F)ccc1Oc1ccc2c(C3CC3)cccc2c1` [Compound 9z, 2-((5-cyclopropylnaphthalen-2-yl)oxy)-5-(3-fluoro-1H-pyrazol-4-yl)benzoic acid] the figure was 110 nM; with `CC(=O)NCCc1ccc(Oc2ccc(-c3cn[nH]c3)cc2C(=O)O)cc1` [Compound 9l, 2-(4-(2-acetamidoethyl)phenoxy)-5-(1H-pyrazol-4-yl)benzoic acid], 11000 nM.
Still for that read-out and setting: with `O=C(O)c1cccc(Oc2ccc(-c3cn[nH]c3)cc2C(=O)O)c1` [Compound 9n, 2-(3-carboxyphenoxy)-5-(1H-pyrazol-4-yl)benzoic acid] the figure was 9400 nM.
Same read-out and setting: with `Cc1ccc(-c2cn[nH]c2)cc1C(=O)O` [Compound 9e, 2-methyl-5-(1H-pyrazol-4-yl)benzoic acid] the figure was 60000 nM; with `O=C(O)c1cc(-c2c[nH]nc2F)ccc1Oc1ccc2ccc(C3CC3)cc2c1` [Compound 9x, 2-((7-cyclopropylnaphthalen-2-yl)oxy)-5-(3-fluoro-1H-pyrazol-4-yl)benzoic acid], 150 nM; with `O=C(O)c1cc(-c2cn[nH]c2)ccc1Oc1cccc2ccoc12` [Compound 9m, 2-(benzofuran-7-yloxy)-5-(1H-pyrazol-4-yl)benzoic acid], 3700 nM.
For `O=C(O)c1cc(-c2c[nH]nc2F)ccc1Oc1cccc(F)c1` [Compound 9t, 5-(3-fluoro-1H-pyrazol-4-yl)-2-(3-fluorophenoxy)benzoic acid], the Ki stood at 2100 nM.
In the case of `O=C(O)c1cc(-c2cn[nH]c2)ccc1Oc1cc2c3c(cccc3c1)C=C2` [Compound 9q, 2-(acenaphthylen-4-yloxy)-5-(1H-pyrazol-4-yl)benzoic acid], the Ki was 1500 nM.
Same read-out and setting: the same measure for `O=C(O)c1cc(-c2c[nH]nc2F)ccc1Oc1ccc2c(c1)CCCC2` [Compound 9y, 5-(3-fluoro-1H-pyrazol-4-yl)-2-((5,6,7,8-tetrahydronaphthalen-2-yl)oxy)benzoic acid]: 260 nM.
On the same count and under the same terms, the same measure for `COc1cccc(Oc2ccc(-c3cn[nH]c3)cc2C(=O)O)c1` [Compound 9i, 2-(3-methoxyphenoxy)-5-(1H-pyrazol-4-yl)benzoic acid]: 2500 nM; for `O=C(O)c1cc(-c2c[nH]nc2F)ccc1Oc1cc2c3c(cccc3c1)CC2` [Compound 9v, 2-((1,2-dihydroacenaphthylen-4-yl)oxy)-5-(3-fluoro-1H-pyrazol-4-yl)benzoic acid]: 100 nM.
Take `Cc1n[nH]cc1-c1ccc(Oc2ccc3ccccc3c2)c(C(=O)O)c1` [Compound 9cc, 5-(3-methyl-1H-pyrazol-4-yl)-2-(naphthalen-2-yloxy)benzoic acid]: the Ki is 15000 nM.
Still for that read-out and setting: with `O=C(O)c1cc(-c2c[nH]nc2F)ccc1Oc1cccc(-c2ncccn2)c1` [Compound 9aa, 5-(3-fluoro-1H-pyrazol-4-yl)-2-(3-(pyrimidin-2-yl)phenoxy)benzoic acid] the figure was 230 nM; with `O=C(O)c1cc(-c2cn[nH]c2)ccc1Oc1ccc2ccoc2c1` [Compound 9p, 2-(benzofuran-6-yloxy)-5-(1H-pyrazol-4-yl)benzoic acid], 1500 nM.

One may read the Ki as a measure of affinity in units of concentration, obtained from inhibition or displacement.
